Test results: patent EP4722228A1, “NEW COMPOUND TARGETING MUSK AND USE THEREOF” (The University of Tokyo, priority 2023, dated 2024)
Bridge positions count the residues as written; N and C are the ends. Square brackets hold non-standard residues; d marks the D form. Peptide text beside a SMILES is read from it. I, II: the chains in the order shown. * marks the point of attachment. Palmitoyl = CCCCCCCCCCCCCCCC(=O)*; PEG3 = NCCOCCOCCOCCC(=O)O; Dap = NC[C@H](N)C(=O)O

Target: T1, human MuSK (Homo sapiens, UniProt O15146)
T1 construct: fused downstream of the extracellular portion (amino acids 1-493) of human MuSK cDNA clone; made in house; host or cells: Expi293 cells; unpurified culture supernatant used
T1 sequence (O15146 24-493) 1: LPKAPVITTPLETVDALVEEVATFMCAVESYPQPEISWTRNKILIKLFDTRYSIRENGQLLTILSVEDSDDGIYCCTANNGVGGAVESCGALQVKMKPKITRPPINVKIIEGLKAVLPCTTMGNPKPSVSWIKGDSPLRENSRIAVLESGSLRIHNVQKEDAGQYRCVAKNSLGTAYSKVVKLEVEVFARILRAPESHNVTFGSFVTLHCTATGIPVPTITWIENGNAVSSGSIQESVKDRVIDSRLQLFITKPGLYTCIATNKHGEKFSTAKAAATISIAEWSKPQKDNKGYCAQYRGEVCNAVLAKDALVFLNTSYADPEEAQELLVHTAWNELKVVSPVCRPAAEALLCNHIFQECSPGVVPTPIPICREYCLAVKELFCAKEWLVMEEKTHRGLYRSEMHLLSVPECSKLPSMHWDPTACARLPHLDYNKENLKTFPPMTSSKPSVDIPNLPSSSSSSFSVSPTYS
T1 sequence (O15146 24-493) 2: T1 sequence (O15146 24-493) 1
Test: MuSK dimerization activity (NanoBiT assay)
Type: biochemical
Procedure: Expi293 cells were purchased from Thermo Fisher Scientific Inc. and used. For subculture, DMEM (high glucose, GlutaMAX supplement, pyruvate; GIBCO) supplemented with 10% fetal bovine serum (FBS; GIBCO) was used. For passage, after the culture medium was removed by suction, adherent cells were washed with phosphate buffered saline (PBS(-)), and HBSS (GIBCO) containing no Mg^2+ and Ca^2+ and containing 0.25% trypsin and 1 mM ethylenediaminetetraacetic acid was added, and the mixture was reacted in a CO2 incubator (37°C, 5% CO2) for 5 minutes. The detached cells were collected and then centrifuged at 1000 rpm at 4°C for 5 minutes (Sorvall X4R Pro, Thermo Fisher Scientific Inc.). After the supernatant was removed by suction, the cells were suspended in fresh culture medium and expanded in a new culture vessel.
In the steady state, their affinity is estimated to be about 190 µM, and the amount of luminescence is very small even in the presence of substrate. […] A technique for evaluating interactions between two arbitrary proteins by utilizing this property is the NanoBiT assay. […]
The effect of the U-bodies and their complexes on clustering of acetylcholine receptors was evaluated. […]

Which MuSK dimerization (compound concentration exceeded 40 nM) does the source give for `CCCCCCCCCCCCCCCC(=O)NCCCC[C@H](NC(=O)[C@H](CNC(=O)CCOCCOCCOCCNC(=O)CNC(=O)[C@@H]1CSCC(=O)N[C@H](Cc2ccc(O)cc2)C(=O)N2CCC[C@H]2C(=O)N[C@@H](CO)C(=O)N[C@@H](Cc2ccc(O)cc2)C(=O)N[C@@H](Cc2c[nH]cn2)C(=O)N[C@@H]([C@@H](C)O)C(=O)N[C@@H](CC(N)=O)C(=O)N[C@@H](C(C)C)C(=O)N[C@@H](C(C)C)C(=O)N[C@@H](C)C(=O)N[C@@H](CO)C(=O)N[C@@H](CC(C)C)C(=O)N[C@@H](CCCCN)C(=O)N[C@@H](CCCNC(=N)N)C(=O)N1)NC(=O)CCOCCOCCOCCNC(=O)CNC(=O)[C@@H]1CSCC(=O)N[C@H](Cc2ccc(O)cc2)C(=O)N2CCC[C@H]2C(=O)N[C@@H](CO)C(=O)N[C@@H](Cc2ccc(O)cc2)C(=O)N[C@@H](Cc2c[nH]cn2)C(=O)N[C@@H]([C@@H](C)O)C(=O)N[C@@H](CC(N)=O)C(=O)N[C@@H](C(C)C)C(=O)N[C@@H](C(C)C)C(=O)N[C@@H](C)C(=O)N[C@@H](CO)C(=O)N[C@@H](CC(C)C)C(=O)N[C@@H](CCCCN)C(=O)N[C@@H](CCCNC(=N)N)C(=O)N1)C(N)=O` [MuSK7-pal] (I: {CH2CO}-[dY]PSYHTNVVASLKRCG[PEG3][Dap]K(Palmitoyl)-NH2 / II: {CH2CO}-[dY]PSYHTNVVASLKRCG[PEG3]; amide I:18-II:C; thioether I:N-I:15, II:N-II:15) here?
Its MuSK dimerization is “conversely tended to decrease”.

And the “luminescence (MuSK dimerization)” value (concentration range from the pM order to 40 nM)?
Its value is “increased in a dose-dependent manner”.
